Series [1] is described as follows: Pharmacokinetics in fasted male Sprague Dawley rats, single dose. The format is in vivo. The conditions noted are these: rat, po, analyte EZE in plasma, single dose 100 mg/kg crystalline EZE or equivalent amount of amorphous EZE. Here is the method:
The pharmacokinetics of crystalline EZE and the amorphous 1 EZE: 3 PVP+2% SLS spray dried powder were studied in male Sprague Dawley rats in the fasted state. Six rats were single-dosed with either 100 mg/kg crystalline EZE or an equivalent amount of the amorphous EZE of Example 2.

For series [2] the following is noted: cited from earlier work.

By Cmax is commonly meant the maximum level reached in the sampled fluid or tissue. The term Tmax denotes the time from dosing to the highest level.

Turning to `O=C1[C@H](CC[C@H](O)c2ccc(F)cc2)[C@@H](c2ccc(O)cc2)N1c1ccc(F)cc1` [crystalline, 1-(4-fluorophenyl)-3(R)-[3-(4-fluorophenyl)-3(S)-hydroxypropyl]-4(S)-(4-hydroxyphenyl)-2-azetidinone], in series [1], the Cmax turned out to be 5.1 ng/mL and the Tmax is 8 h. For the same compound, the AUC(0-t) in series [1] (read-out: AUC0-24 h) worked out at 64.2 ng·h/mL. Moreover, the solubility in water entry in series [2] is listed as “insoluble in water”.

(Values after US20080085315A1, “Amorphous ezetimibe and the production thereof” (priority 2006, published 2008).)
